Experimental findings from ChEMBL document CHEMBL1201862, “PubChem BioAssay data set” (2004) are described below.

Calls of active or inactive are those of the source.

For assay [1], the target named is Luciferin 4-monooxygenase (Photinus pyralis, UniProt P08659). The assay is described as follows: firefly luciferase enzyme inhibitors, dose response, biochemical, luminescence (AID 1891).
A short description of assay [2]: Luminescence Cell-Based Dose Confirmation HTS to Identify Inhibitors of Platelet Dense Granule Release. [Related pubchem assays: 1663 (Primary HTS), 1678 (Summary of Project)]. The assay is classed as functional.
The subject of assay [3] is BJ. The assay is described as follows: cytotoxicity toward BJ-TERT fibroblasts, dose response, cell-based, RAS-independent, luminescence (AID 1933). It counts as functional. Conditions: Homo sapiens.
For assay [4], the system named is BJ. The assay is described as follows: cells. Conditions: Homo sapiens. It counts as functional, cell-based.
Assay [5] has as its system BJ. The assay is described as follows: cytotoxicity toward BJ-TERT-LT-ST fibroblasts, dose response, cell-based, RAS-independent, luminescence (AID 1935).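 Note: BJ fibroblasts immortalized with TERT plus LT and ST oncogenes.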 It counts as functional. As to conditions: Homo sapiens.
The nature of assay [6]: cytotoxicity toward DRD oncogenic fibroblasts, dose response, cell-based, non-viral oncogenic, luminescence (AID 1934). The assay is classed as functional. As to conditions: Homo sapiens.
Assay [7] addresses T1, Replicative DNA helicase DnaB (Mycobacterium tuberculosis, UniProt P9WMR3).
T1 sequence (P9WMR3 whole entry): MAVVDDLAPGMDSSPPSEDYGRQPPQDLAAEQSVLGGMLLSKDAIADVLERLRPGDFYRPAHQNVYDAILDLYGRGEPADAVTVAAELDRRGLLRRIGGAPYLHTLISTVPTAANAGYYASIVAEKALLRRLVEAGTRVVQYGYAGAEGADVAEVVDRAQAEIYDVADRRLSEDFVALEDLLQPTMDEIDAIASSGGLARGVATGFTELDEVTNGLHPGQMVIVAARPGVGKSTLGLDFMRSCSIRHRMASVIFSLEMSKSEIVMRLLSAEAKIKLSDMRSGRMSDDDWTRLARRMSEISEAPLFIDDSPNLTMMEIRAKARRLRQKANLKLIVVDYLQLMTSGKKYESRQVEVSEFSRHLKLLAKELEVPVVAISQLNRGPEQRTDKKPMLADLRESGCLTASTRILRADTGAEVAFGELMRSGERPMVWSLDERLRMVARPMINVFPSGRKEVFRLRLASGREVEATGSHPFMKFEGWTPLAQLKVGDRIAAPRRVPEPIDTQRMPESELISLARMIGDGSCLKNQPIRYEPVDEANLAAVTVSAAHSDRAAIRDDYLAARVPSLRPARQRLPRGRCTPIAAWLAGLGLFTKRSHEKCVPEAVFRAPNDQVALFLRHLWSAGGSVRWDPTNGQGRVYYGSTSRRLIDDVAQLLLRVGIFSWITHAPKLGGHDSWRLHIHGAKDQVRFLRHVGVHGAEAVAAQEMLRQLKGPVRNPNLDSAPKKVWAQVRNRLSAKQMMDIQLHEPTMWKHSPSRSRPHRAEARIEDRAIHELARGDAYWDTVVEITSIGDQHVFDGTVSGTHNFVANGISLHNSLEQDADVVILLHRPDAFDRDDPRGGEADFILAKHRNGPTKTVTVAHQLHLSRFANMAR
The assay is described as follows: DnaB intein splicing inhibitors, dose response, biochemical, cell-free fluorescence (AID 449749). It counts as functional.

The target of the next assay is T2, Protein RecA (Mycobacterium tuberculosis, UniProt P9WHJ3).
T2 sequence (P9WHJ3 whole entry): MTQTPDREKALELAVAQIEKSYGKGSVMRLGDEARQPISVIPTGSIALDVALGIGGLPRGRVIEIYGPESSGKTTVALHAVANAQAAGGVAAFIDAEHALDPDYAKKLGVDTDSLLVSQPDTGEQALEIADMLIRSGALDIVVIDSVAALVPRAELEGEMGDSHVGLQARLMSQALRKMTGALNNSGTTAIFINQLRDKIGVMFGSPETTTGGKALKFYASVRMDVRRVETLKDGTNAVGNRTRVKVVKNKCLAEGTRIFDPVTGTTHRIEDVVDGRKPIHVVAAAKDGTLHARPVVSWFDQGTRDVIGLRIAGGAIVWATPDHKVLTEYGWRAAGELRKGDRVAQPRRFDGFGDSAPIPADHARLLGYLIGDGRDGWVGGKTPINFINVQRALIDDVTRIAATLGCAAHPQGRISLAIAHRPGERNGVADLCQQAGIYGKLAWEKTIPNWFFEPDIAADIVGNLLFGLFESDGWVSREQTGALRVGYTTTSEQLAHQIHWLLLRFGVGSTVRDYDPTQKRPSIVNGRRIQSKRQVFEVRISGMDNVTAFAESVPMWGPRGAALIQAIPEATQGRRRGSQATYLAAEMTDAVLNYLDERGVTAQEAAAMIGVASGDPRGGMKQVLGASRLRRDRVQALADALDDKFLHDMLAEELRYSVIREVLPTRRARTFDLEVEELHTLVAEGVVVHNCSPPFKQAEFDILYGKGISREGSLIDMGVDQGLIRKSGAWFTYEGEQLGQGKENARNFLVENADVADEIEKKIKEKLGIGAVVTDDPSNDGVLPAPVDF
The assay is described as follows: Fluorescence Cell-Free Homogeneous Dose Retest to Identify Inhibitors of RecA-Intein Splicing Activity. [Related pubchem assays (depositor defined):AID2097, AID2223, AID489010, AID492950]. The assay is classed as functional.

For a further assay, the target named is Nonstructural protein 1 (Influenza A virus, UniProt Q194T2). It counts as functional, Influenza A virus (A/California/07/2009(H1N1)).
Assay [8] is described as follows: P. falciparum Dd2 growth inhibitors, dose response, SYBR Green, cherry-picked samples (AID 1159567). It counts as functional, cell-based.
A further assay deals with T3, Protein skinhead-1 (Caenorhabditis elegans, UniProt P34707).
T3 sequence (P34707 whole entry): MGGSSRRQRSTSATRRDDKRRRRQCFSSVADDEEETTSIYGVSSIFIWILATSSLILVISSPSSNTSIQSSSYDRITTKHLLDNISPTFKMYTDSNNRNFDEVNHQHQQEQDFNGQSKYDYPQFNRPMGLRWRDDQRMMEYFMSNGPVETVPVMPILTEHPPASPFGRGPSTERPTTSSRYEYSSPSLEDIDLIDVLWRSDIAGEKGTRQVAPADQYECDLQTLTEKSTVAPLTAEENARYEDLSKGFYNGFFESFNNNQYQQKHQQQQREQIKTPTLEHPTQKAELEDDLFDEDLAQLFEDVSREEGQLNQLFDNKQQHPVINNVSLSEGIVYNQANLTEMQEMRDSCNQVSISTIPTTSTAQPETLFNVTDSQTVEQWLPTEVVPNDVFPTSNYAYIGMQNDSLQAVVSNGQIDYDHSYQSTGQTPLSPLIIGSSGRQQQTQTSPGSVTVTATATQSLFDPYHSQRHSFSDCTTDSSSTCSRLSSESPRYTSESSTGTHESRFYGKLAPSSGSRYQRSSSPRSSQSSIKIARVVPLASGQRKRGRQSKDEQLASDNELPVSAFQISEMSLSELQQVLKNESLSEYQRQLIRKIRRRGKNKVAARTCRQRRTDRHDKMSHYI
The assay is classed as functional.

Assay [9] in a line: growth suppression of PTEN-null colon cells, dose response, cell-based, HCT116 PTEN knockout (AID 1047).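 Note: HCT116 colon tumor cells with PTEN knocked out; cells exposed to compound for 60 hours before readout; potency for loss of cell viability measured by luminescence.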 It counts as functional.
A short description of assay [10]: growth suppression of beta-catenin-knockout colon cells, dose response, cell-based, HCT116, human colon tumor (AID 1045).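 Note: HCT116 colon tumor cells with beta catenin knocked out; cells exposed to compound for 60 hours.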 The assay is classed as functional.
In a further assay the test system is Vero. The assay is described as follows: cells. The assay is classed as functional. Conditions: Chlorocebus sabaeus.
The nature of assay [11]: inhibitors of HIV Env-driven cell fusion, dose response, cherry-pick (AID 652057). It counts as functional, cell-based.
Assay [12] in a line: HEp-2 cell cytotoxicity, dose response, cytotoxicity control for RSV inhibitor project, HTS (AID 2410). The assay is classed as functional. Conditions: human respiratory syncytial virus.
Assay [13] is described as follows: Shn3 3'UTR reporter inhibitors, dose response, cell-based, Clone20 osteoblasts, firefly luciferase, cherry-picked (AID 624132).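 Note: firefly luciferase luminescence from reporter carrying the Shn3 3'UTR in osteoblasts.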 It counts as functional.

Chain of Luciferin 4-monooxygenase (P08659 whole entry): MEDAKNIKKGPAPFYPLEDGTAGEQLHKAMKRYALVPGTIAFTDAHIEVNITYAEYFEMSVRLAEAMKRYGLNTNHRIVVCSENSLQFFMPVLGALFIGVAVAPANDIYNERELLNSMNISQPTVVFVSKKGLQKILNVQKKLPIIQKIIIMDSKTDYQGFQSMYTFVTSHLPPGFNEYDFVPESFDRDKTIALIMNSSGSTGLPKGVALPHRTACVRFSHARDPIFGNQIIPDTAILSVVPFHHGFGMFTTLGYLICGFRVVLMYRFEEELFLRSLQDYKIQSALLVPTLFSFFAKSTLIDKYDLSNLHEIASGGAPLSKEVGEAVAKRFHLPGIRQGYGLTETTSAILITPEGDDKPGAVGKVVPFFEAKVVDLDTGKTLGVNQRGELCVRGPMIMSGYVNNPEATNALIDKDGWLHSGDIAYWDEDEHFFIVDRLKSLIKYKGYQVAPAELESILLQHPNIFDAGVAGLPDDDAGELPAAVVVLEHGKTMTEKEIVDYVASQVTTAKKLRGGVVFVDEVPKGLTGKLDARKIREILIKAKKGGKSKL
Chain of Nonstructural protein 1 (Q194T2 whole entry): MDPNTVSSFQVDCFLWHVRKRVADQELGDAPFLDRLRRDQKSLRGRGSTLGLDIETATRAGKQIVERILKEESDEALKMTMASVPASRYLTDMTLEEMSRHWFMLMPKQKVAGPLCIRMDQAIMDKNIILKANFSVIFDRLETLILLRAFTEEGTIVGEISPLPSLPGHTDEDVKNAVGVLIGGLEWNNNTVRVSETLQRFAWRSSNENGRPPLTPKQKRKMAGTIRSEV

Consider `O=C(Nc1ccc(-c2nc3ccccc3o2)cc1)C1CCCO1` (configuration not stated), for which the EC50 – broadly, the concentration at which the effect is half-maximal – in assay [1] was 2.6 µM (active); in [2] it was 2.58 µM (active). On to `CCCc1nnc(NC(=O)CCC(=O)N2CCN(Cc3ccc(OC)c(F)c3)CC2)s1`, for which the EC50 was 25.9 µM (active) in the assay on BJ [3], > 150 µM (inconclusive) in the assay with BJ [4], > 150 µM (not active) in the assay on BJ [5] and > 150 µM (not active) in [6]. For the molecule `C/C(CC(=O)Nc1cc(C)ccn1)=N\NC(=O)c1cccc(C)c1`, in assay [7], the AC50 – broadly, the concentration at which the activity in the assay is half-maximal – is 9.58 µM (active). The concentration giving a half-maximal response (EC50) at Protein RecA is 4.04 µM (active).

With `O=C(CNCc1ccccn1)Nc1ccc([N+](=O)[O-])cc1C(=O)Nc1ccccc1F`, at Nonstructural protein 1, the IC50 (in general, the concentration needed to halve the response being measured) was 5.49 µM (active). As to `CCCc1cn([C@H]2C[C@@H]3O[C@@H](CO)CC[C@@H]3O[C@@H]2CCc2ccc(-c3ccc(OC)cc3)cc2)nn1`, the AC50 in assay [8] was 6.63 µM (active). For `Nc1ccc2c(c1)sc1ccccc12`, on Protein skinhead-1, the half-inhibitory concentration (IC50) was 29 µM (active). On to `CC1(C)Cc2c(sc3nc(-c4cccs4)n(N)c(=O)c23)CO1`, for which the values for the EC50 in assay [9] and in assay [10] were 16.7 µM (active) and 23.9 µM (active), respectively. For the molecule `O=C(/C=C/c1ccc(Cl)cc1Cl)c1cccnc1`, the EC50 in assay [9] was 7.26 µM (active); in [10] it was 5.09 µM (active). Besides, in the assay on Vero, the CC50 (commonly the concentration giving 50% cytotoxicity) was > 25 µM (active).

For the molecule `COc1ccccc1C(=O)N1CCN(c2cccc(Cl)c2)CC1`, the EC50 with BJ [3] is 1.79 µM (active); in the assay on BJ [4] it was 38.6 µM (inconclusive); in the assay with BJ [5], 0.833 µM (inconclusive); in assay [6] it was 1.37 µM (active).

Regarding `O=C1Nc2ccccc2Nc2ncccc21`, the EC50 in [1] and in assay [2] was > 112 µM (not active) each time. As to `N#CC1=C(N)N(c2ccc(F)cc2)C2=C(C1c1ccc(O)cc1)S(=O)(=O)CC2` (configuration not stated), the IC50 on Protein skinhead-1 is > 100 µM (inactive).

With `COc1ccc2c3c([nH]c2c1)[C@H](CO)N(Cc1ccccc1Cl)CC31CN(C(C)=O)C1`, in assay [8], the AC50 was 5.9 µM (active). Take `Cc1ccc2nc(NC(=O)CN3C(=O)NC4(CCCC4)C3=O)sc2c1`: the EC50 in [1] was 80 µM (active); in assay [2] it was > 112 µM (not active). Take `C[C@H](CO)N1C[C@H](C)[C@H](CN(C)S(=O)(=O)c2ccc(C#N)cc2)Oc2ncc(/C=C/c3ccccc3)cc2C1=O`: the AC50 in [11] is 7.61 µM (active).

On to `CCCOc1ccc(/C=N/Nc2ccccc2[N+](=O)[O-])c(O)c1`, for which the concentration giving a half-maximal response (EC50) in the assay with BJ [3] was 11.3 µM (active); in the assay on BJ [4] it was 12.2 µM (active); with BJ [5] it was > 150 µM (inconclusive); in assay [6], 10.1 µM (active). Regarding `COc1cccc(-c2ccc3c(c2)[C@H]2[C@H](CCN2C(=O)C2CCCCC2)[C@@H](CO)N3)c1`, in assay [8], the AC50 was 4.95 µM (active). The same measure, in the same setting: with `COc1ccc2c3c([nH]c2c1)[C@@H](CO)N(Cc1ccc(Cl)cc1)CC31CCN(Cc2nccs2)CC1` the figure was 4.65 µM (active). Consider `COc1ccc(OC)c(C(=O)C2COC(=O)C2)c1` (configuration not stated), for which the IC50 at Protein skinhead-1 was > 100 µM (inactive). As to `CCN(c1ccccc1)S(=O)(=O)c1cccc(C(=O)Nc2ccc(C)cn2)c1`, the CC50 in assay [12] was 30.3 µM (active). For the same molecule, the IC50 on Protein skinhead-1 was > 100 µM (inactive).

`CC(C)(C)C(=O)Nc1cc(S(=O)(=O)N2CCCCC2)ccc1N1CCCCC1`: in [13], the AC50 was 23.1 µM (active). Regarding `CC1CCCCN1S(=O)(=O)c1ccc(C(=O)Nc2ccccc2-c2nc3ccccc3[nH]2)cc1` (configuration not stated), the EC50 is 17 µM (active) in assay [9] and 25.5 µM (active) in assay [10]. As for `Cc1cc(N(C)N)nc(NC(=O)NS(=O)(=O)c2ccccc2Cl)n1`, the IC50 on Nonstructural protein 1 is 5.96 µM (active). On to `COc1cc(OC)c(-c2nnc3n(CCc4ccccc4)c(=O)c4ccccc4n23)cc1OC`, for which the half-maximal effective concentration (EC50) in assay [1] and in [2] was > 112 µM (not active) each time. As to `COc1cc(C(c2sc3nc(C)nn3c2O)N2CCOCC2)cc(OC)c1OC` (configuration not stated), the EC50 is > 112 µM (not active) in assay [1] and 18.6 µM (active) in [2]. For `CCOc1ccccc1N1CC(C(=O)Nc2nccs2)CC1=O` (configuration not stated) the same measures were > 112 µM (not active) and > 112 µM (not active). Regarding `COc1cc(/C=C2\C(=O)N(c3ccc(NC(C)=O)cc3)N=C2c2ccccc2)ccc1O`, the AC50 in assay [7] is > 380 µM (inactive). Further, on Protein RecA, the EC50 was > 380 µM (inconclusive). Regarding `COc1ccc(C(=O)Nc2ccccc2C(=O)N(Cc2ccco2)C(C(N)=O)C(C)C)cc1` (configuration not stated), the EC50 in assay [9] is 6.76 µM (active); in assay [10], 9.3 µM (active). For the molecule `COc1cc(/C=C/C(=O)c2cccc([N+](=O)[O-])c2)cc(OC)c1OC`, the results for the EC50 in assay [9] and in [10] were 3.46 µM (active) and 2.7 µM (active), respectively.
